Data from patent publication US11638689B2, “Deep topical systemic nitric oxide therapy apparatus and method” (SYK Technologies LLC, priority 2013, dated 2023).

Test system: bacteria on a surface, such as a person's skin
Test: Nitric oxide dose required to kill bacteria on a surface
Details: ppm of nitric oxide

SMILES: [N]=O [nitric oxide]
- dose required to kill bacteria on a surface: ≥ 320 ppm
